Assay results as given in paper PMC8072286, “Gcn5-Related N-Acetyltransferases (GNATs) With a Catalytic Serine Residue Can Play Ping-Pong Too” (Frontiers in Molecular Biosciences, 2021).

Target: T1, PA3944 (Pseudomonas aeruginosa, UniProt Q9HX72)
T1 construct: heterologous expression; N-terminal polyhistidine tag kept for kinetics, removed for crystallization; monomer in solution
Assay: X-ray crystal structure ([…] Å)
Type: binding
Conditions: co-crystallized with 5 mM AcCoA, donor site

T1 sequence (Q9HX72 whole entry): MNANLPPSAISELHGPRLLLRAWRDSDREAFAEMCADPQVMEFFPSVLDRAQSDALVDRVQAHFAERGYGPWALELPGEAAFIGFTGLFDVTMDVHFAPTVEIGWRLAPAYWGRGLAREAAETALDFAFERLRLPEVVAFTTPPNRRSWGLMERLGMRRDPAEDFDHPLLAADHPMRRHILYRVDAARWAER

Compound	X-ray crystal structure (1.80 Å) (AcCoA modeled in chain B)	X-ray crystal structure (1.80 Å) (CoA modeled in chain A)
CC(=O)SCCNC(=O)CCNC(=O)[C@H](O)C(C)(C)COP(=O)(O)OP(=O)(O)OC[C@H]1O[C@@H](n2cnc3c(N)ncnc32)[C@H](O)[C@@H]1OP(=O)(O)O [AcCoA]	we modeled CoA in chain A and AcCoA in chain B	–
CC(C)(COP(=O)(O)OP(=O)(O)OC[C@H]1O[C@@H](n2cnc3c(N)ncnc32)[C@H](O)[C@@H]1OP(=O)(O)O)[C@@H](O)C(=O)NCCC(=O)NCCS [CoA]	–	we modeled CoA in chain A and AcCoA in chain B
